Laboratory results from ChEMBL document CHEMBL4033665, “Synthesis and applications of benzohydroxamic acid-based histone deacetylase inhibitors” (Eur J Med Chem, 2017).
pIC50: −log10 of the molar value.

How the values were obtained:
Homo sapiens [1] = species on record: Homo sapiens; experiment: Selectivity index, ratio of IC50 for human HDAC7 to IC50 for human HDAC6
Histone deacetylase 8 = molecular target: T1, Histone deacetylase 8 (Homo sapiens, UniProt Q9BY41); experiment: Inhibition of human HDAC8 after 15 mins by trypsin-coupled fluorescence assay
T1 sequence (Q9BY41 whole entry): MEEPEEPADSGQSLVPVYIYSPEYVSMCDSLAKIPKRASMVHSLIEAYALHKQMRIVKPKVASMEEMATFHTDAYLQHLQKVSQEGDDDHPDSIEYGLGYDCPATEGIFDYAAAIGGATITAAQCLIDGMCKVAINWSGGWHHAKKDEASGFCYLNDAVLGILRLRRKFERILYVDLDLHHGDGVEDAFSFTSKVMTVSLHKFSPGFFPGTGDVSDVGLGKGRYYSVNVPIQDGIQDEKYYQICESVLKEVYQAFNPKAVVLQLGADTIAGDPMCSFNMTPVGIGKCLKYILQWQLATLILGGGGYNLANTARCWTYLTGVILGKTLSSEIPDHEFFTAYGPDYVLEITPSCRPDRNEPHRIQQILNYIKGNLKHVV

Homo sapiens [2] = species on record: Homo sapiens; experiment: Selectivity index, ratio of IC50 for human HDAC4 to IC50 for human HDAC6
Homo sapiens [3] = species on record: Homo sapiens; experiment: Selectivity index, ratio of IC50 for human HDAC9 to IC50 for human HDAC6
[4] = molecular target: T2, Protein deacetylase HDAC6 (Homo sapiens, UniProt Q9UBN7); experiment: Inhibition of human HDAC6 after 15 mins by trypsin-coupled fluorescence assay
T2 sequence (Q9UBN7 whole entry): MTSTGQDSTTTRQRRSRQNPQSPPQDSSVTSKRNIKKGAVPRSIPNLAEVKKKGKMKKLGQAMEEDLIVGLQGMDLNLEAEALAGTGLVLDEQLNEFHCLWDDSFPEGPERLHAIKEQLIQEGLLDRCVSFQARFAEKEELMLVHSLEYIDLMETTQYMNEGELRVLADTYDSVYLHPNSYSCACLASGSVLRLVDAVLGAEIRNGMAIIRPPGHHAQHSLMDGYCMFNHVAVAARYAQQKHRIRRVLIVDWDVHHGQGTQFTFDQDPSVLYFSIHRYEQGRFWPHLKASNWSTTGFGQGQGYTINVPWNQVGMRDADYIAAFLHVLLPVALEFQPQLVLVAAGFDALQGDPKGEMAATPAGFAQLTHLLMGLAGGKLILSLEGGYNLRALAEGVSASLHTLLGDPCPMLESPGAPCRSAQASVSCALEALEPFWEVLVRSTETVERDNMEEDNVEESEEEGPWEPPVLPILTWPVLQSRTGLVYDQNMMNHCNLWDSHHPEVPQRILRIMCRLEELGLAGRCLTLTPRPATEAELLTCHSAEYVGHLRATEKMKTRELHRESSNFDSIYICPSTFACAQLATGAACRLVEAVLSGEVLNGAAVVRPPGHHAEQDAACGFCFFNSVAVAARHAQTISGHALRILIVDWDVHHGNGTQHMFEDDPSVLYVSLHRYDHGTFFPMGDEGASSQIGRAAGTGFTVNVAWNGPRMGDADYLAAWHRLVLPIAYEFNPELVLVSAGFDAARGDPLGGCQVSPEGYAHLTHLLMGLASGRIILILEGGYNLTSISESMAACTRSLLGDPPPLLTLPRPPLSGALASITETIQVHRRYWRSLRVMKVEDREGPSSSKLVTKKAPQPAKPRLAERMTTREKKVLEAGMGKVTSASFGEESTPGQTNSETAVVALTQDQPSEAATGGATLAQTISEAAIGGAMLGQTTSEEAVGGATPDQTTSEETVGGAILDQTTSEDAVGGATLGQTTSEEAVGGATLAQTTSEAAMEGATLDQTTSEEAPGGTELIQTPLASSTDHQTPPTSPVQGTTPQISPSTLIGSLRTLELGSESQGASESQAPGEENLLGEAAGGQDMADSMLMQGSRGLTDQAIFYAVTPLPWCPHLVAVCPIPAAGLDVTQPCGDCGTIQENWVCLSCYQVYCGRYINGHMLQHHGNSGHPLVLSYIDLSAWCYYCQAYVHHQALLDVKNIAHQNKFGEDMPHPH

Histone deacetylase 5 = Histone deacetylase 5 (Homo sapiens, UniProt Q9UQL6); experiment: Inhibition of human HDAC5 after 15 mins by trypsin-coupled fluorescence assay
Sequence of Histone deacetylase 5 (Q9UQL6 whole entry): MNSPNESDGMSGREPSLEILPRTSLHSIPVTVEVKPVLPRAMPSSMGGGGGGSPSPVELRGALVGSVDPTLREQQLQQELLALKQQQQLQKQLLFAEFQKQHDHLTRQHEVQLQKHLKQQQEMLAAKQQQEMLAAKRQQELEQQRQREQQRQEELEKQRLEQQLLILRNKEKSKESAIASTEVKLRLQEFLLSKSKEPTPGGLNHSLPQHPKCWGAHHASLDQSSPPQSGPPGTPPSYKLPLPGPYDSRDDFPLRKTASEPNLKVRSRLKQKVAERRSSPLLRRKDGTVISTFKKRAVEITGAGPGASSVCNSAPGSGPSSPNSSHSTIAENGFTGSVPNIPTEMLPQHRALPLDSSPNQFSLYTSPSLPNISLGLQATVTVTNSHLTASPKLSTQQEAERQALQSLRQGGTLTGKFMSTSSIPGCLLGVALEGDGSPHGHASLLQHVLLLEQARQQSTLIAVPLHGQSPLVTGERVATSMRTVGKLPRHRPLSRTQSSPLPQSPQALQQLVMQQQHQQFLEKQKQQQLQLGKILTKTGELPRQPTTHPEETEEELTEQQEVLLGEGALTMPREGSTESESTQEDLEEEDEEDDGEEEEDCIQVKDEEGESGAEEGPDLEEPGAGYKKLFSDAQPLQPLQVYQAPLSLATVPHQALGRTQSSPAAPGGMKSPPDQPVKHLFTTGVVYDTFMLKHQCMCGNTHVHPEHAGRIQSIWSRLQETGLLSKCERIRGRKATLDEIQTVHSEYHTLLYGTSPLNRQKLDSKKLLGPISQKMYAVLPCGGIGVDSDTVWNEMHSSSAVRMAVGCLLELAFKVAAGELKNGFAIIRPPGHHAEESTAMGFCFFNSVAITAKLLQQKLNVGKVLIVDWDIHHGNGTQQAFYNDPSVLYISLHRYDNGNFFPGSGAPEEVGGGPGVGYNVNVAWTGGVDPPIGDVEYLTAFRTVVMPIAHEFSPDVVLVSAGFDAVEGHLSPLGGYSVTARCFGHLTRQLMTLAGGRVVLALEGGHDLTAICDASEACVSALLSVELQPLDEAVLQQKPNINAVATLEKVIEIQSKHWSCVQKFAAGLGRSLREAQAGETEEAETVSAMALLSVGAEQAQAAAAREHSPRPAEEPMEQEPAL

Histone deacetylase 1 = Histone deacetylase 1 (Homo sapiens, UniProt Q13547); experiment: Inhibition of human HDAC1 after 15 mins by trypsin-coupled fluorescence assay
Sequence of Histone deacetylase 1 (Q13547 whole entry): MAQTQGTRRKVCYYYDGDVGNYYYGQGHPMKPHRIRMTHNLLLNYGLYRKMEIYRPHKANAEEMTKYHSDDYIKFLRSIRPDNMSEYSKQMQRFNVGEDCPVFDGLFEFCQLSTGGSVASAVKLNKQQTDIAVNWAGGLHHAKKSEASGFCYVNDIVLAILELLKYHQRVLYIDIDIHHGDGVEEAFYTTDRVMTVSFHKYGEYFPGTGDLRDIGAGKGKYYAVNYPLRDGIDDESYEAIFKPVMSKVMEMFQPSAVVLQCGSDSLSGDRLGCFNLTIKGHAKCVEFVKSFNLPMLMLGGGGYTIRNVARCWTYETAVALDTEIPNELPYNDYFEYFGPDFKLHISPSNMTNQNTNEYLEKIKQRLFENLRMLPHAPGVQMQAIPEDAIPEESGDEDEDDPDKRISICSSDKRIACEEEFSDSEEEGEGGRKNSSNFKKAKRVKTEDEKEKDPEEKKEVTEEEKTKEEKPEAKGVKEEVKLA

Histone deacetylase 7 = molecular target: T3, Histone deacetylase 7 (Homo sapiens, UniProt Q8WUI4); experiment: Inhibition of human HDAC7 after 15 mins by trypsin-coupled fluorescence assay
T3 sequence (Q8WUI4 whole entry): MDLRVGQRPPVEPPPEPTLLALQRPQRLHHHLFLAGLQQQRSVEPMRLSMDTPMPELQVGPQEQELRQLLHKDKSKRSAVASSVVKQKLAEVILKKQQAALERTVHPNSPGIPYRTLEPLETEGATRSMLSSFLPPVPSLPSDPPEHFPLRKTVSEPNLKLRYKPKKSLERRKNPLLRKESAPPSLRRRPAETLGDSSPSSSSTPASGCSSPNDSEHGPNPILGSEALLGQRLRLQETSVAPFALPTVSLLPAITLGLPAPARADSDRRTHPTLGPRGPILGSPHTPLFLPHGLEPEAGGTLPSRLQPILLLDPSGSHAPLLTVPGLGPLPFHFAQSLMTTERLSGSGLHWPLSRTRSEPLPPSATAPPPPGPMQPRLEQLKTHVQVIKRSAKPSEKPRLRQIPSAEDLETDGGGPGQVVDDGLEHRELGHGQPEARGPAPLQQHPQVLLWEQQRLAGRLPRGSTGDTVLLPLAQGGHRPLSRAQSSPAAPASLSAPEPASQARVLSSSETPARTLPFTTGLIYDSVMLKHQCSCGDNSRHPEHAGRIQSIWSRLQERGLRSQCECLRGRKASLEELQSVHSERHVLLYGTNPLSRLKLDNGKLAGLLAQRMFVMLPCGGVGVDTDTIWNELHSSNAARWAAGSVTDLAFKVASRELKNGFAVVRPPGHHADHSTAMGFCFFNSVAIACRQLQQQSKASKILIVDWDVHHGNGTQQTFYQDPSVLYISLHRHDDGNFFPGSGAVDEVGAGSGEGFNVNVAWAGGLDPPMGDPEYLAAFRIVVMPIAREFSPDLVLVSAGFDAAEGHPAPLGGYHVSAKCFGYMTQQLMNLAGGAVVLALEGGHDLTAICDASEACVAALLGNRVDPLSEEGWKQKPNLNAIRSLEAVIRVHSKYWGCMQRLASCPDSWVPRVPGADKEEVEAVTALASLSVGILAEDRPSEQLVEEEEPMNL

**Q.** What does the source list for `O=C(NO)c1ccc(CN(CCO)C(=O)Cc2ccccc2)cc1`?
**A.** Ratio IC50 (Homo sapiens [1]): 15 to 400; pIC50 (Histone deacetylase 8): 6.40; Ratio IC50 (Homo sapiens [2]): 15 to 400; Ratio IC50 (Homo sapiens [3]): 15 to 400; pIC50 [4]: 7.60; pIC50 (Histone deacetylase 5): 5.02; pIC50 (Histone deacetylase 1): 6.10; pIC50 (Histone deacetylase 7): 5.96
